Results published in publication PMC6979384, “Characterization of the plant homeodomain (PHD) reader family for their histone tail interactions” (Epigenetics & Chromatin, 2020).

How the values were obtained:
Experiment in all cases: Histone peptide microarray
Assay type in all cases: binding, human
AIRE (PP) = conditions: for Array Heatmap signal, AIRE (PP): GST-tagged AIRE (PP), histone peptide array, arrays performed twice, n of 4
Method in brief: (§1)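 Histone peptide library (293 synthetic peptides, single/combinatorial PTMs) arrayed and probed with 0.5 μM purified GST-PHD domain; optimized protocol; quadruplicate mean and SD reported.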

BAZ2B = conditions: for Array Heatmap signal, BAZ2B: GST-tagged BAZ2B, histone peptide array, arrays performed twice, n of 4
Method in brief: as §1

BPTF (PB) = conditions: for Array Heatmap signal, BPTF (PB): GST-tagged BPTF (PB = PHD + Bromodomain), histone peptide array, arrays performed twice, n of 4
Method in brief: as §1

CHD4 (PPCC) = conditions: for Array Heatmap signal, CHD4 (PPCC): GST-tagged CHD4 (PPCC = Dual PHD + Dual Chromodomain), histone peptide array, arrays performed twice, n of 4
Method in brief: as §1

CHD5 (PCC) = conditions: for Array Heatmap signal, CHD5 (PCC): GST-tagged CHD5 (PCC = PHD + Dual Chromodomain), histone peptide array, arrays performed twice, n of 4
Method in brief: as §1

CHD5 (PPCC) = conditions: for Array Heatmap signal, CHD5 (PPCC): GST-tagged CHD5 (PPCC = Dual PHD + Dual Chromodomain), histone peptide array, arrays performed twice, n of 4
Method in brief: as §1

DIDO1 = conditions: for Array Heatmap signal, DIDO1: GST-tagged DIDO1, histone peptide array, arrays performed twice, n of 4
Method in brief: as §1

DPF2 (PPC2W2) = conditions: for Array Heatmap signal, DPF2 (PPC2W2): GST-tagged DPF2 (PPC2W2 = Dual PHD + C2W2-type Zn-finger), histone peptide array, arrays performed twice, n of 4
Method in brief: as §1

ING1 = conditions: for Array Heatmap signal, ING1: GST-tagged ING1, histone peptide array, arrays performed twice, n of 4
Method in brief: as §1

ING2 = conditions: for Array Heatmap signal, ING2: GST-tagged ING2, histone peptide array, arrays performed twice, n of 4
Method in brief: as §1

ING3 = conditions: for Array Heatmap signal, ING3: GST-tagged ING3, histone peptide array, arrays performed twice, n of 4
Method in brief: as §1

ING4 = conditions: for Array Heatmap signal, ING4: GST-tagged ING4, histone peptide array, arrays performed twice, n of 4
Method in brief: as §1

ING5 = conditions: for Array Heatmap signal, ING5: GST-tagged ING5, histone peptide array, arrays performed twice, n of 4
Method in brief: as §1

KDM4C (TTP) = conditions: for Array Heatmap signal, KDM4C (TTP): GST-tagged KDM4C (TTP = Tandem Tudor domain + PHD), histone peptide array, arrays performed twice, n of 4
Method in brief: as §1

KDM5A (1) = conditions: for Array Heatmap signal, KDM5A (1): GST-tagged KDM5A (1), histone peptide array, arrays performed twice, n of 4
Method in brief: as §1

KDM5A (3) = conditions: for Array Heatmap signal, KDM5A (3): GST-tagged KDM5A (3), histone peptide array, arrays performed twice, n of 4
Method in brief: as §1

KDM5B (1) = conditions: for Array Heatmap signal, KDM5B (1): GST-tagged KDM5B (1), histone peptide array, arrays performed twice, n of 4
Method in brief: as §1

KDM5B (3) = conditions: for Array Heatmap signal, KDM5B (3): GST-tagged KDM5B (3), histone peptide array, arrays performed twice, n of 4
Method in brief: as §1

KDM7A = conditions: for Array Heatmap signal, KDM7A: GST-tagged KDM7A, histone peptide array, arrays performed twice, n of 4
Method in brief: as §1

MLL5 = conditions: for Array Heatmap signal, MLL5: GST-tagged MLL5, histone peptide array, arrays performed twice, n of 4
Method in brief: as §1

MORC3 (CW) = conditions: for Array Heatmap signal, MORC3 (CW): GST-tagged MORC3 (CW = CW-type Zn-finger), histone peptide array, arrays performed twice, n of 4
Method in brief: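 Steps: express and purify GST-tagged PHD reader; incubate 0.5 μM protein on a peptide microarray (293 histone peptides, single or combined PTMs) following an optimized protocol; average signal across 4 replicates.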

PHF13 = conditions: for Array Heatmap signal, PHF13: GST-tagged PHF13, histone peptide array, arrays performed twice, n of 4
Method in brief: as §1

PHF21A = conditions: for Array Heatmap signal, PHF21A: GST-tagged PHF21A, histone peptide array, arrays performed twice, n of 4
Method in brief: as §1

PHF23 = conditions: for Array Heatmap signal, PHF23: GST-tagged PHF23, histone peptide array, arrays performed twice, n of 4
Method in brief: as §1

PHF2 = conditions: for Array Heatmap signal, PHF2: GST-tagged PHF2, histone peptide array, arrays performed twice, n of 4
Method in brief: as §1

PHF8 = conditions: for Array Heatmap signal, PHF8: GST-tagged PHF8, histone peptide array, arrays performed twice, n of 4
Method in brief: as §1

PHRF1 (RP) = conditions: for Array Heatmap signal, PHRF1 (RP): GST-tagged PHRF1 (RP), histone peptide array, arrays performed twice, n of 4
Method in brief: as §1

RAG2 = conditions: for Array Heatmap signal, RAG2: GST-tagged RAG2, histone peptide array, arrays performed twice, n of 4
Method in brief: as §1

SP140L = conditions: for Array Heatmap signal, SP140L: GST-tagged SP140L, histone peptide array, arrays performed twice, n of 4
Method in brief: as §1

TAF3 = conditions: for Array Heatmap signal, TAF3: GST-tagged TAF3, histone peptide array, arrays performed twice, n of 4
Method in brief: as §1

TRIM66 (PB) = conditions: for Array Heatmap signal, TRIM66 (PB): GST-tagged TRIM66 (PB = PHD + Bromodomain), histone peptide array, arrays performed twice, n of 4
Method in brief: as §1

## H4K5ac + K12ac: H4 1-23
AIRE (PP)
  Array Heatmap signal, AIRE (PP): 0.3771
BAZ2B
  Array Heatmap signal, BAZ2B: 0.4409
BPTF (PB)
  Array Heatmap signal, BPTF (PB): 0.414
CHD4 (PPCC)
  Array Heatmap signal, CHD4 (PPCC): 0.585
CHD5 (PCC)
  Array Heatmap signal, CHD5 (PCC): 0.8553
CHD5 (PPCC)
  Array Heatmap signal, CHD5 (PPCC): 0.532
DIDO1
  Array Heatmap signal, DIDO1: 0.8034
DPF2 (PPC2W2)
  Array Heatmap signal, DPF2 (PPC2W2): 0.7316
ING1
  Array Heatmap signal, ING1: 0.5734
ING2
  Array Heatmap signal, ING2: 0.648
ING3
  Array Heatmap signal, ING3: 0.4957
ING4
  Array Heatmap signal, ING4: 0.4639
ING5
  Array Heatmap signal, ING5: 0.3605
KDM4C (TTP)
  Array Heatmap signal, KDM4C (TTP): 0.4758
KDM5A (1)
  Array Heatmap signal, KDM5A (1): 0.4472
KDM5A (3)
  Array Heatmap signal, KDM5A (3): 0.5097
KDM5B (1)
  Array Heatmap signal, KDM5B (1): 0.6768
KDM5B (3)
  Array Heatmap signal, KDM5B (3): 0.4813
KDM7A
  Array Heatmap signal, KDM7A: 0.3306
MLL5
  Array Heatmap signal, MLL5: 0.6047
MORC3 (CW)
  Array Heatmap signal, MORC3 (CW): 0.4134
PHF13
  Array Heatmap signal, PHF13: 0.6317
PHF21A
  Array Heatmap signal, PHF21A: 0.4826
PHF23
  Array Heatmap signal, PHF23: 0.5561
PHF2
  Array Heatmap signal, PHF2: 0.5746
PHF8
  Array Heatmap signal, PHF8: 0.3854
PHRF1 (RP)
  Array Heatmap signal, PHRF1 (RP): 0.4375
RAG2
  Array Heatmap signal, RAG2: 0.3116
SP140L
  Array Heatmap signal, SP140L: 0.3768
TAF3
  Array Heatmap signal, TAF3: 0.366
TRIM66 (PB)
  Array Heatmap signal, TRIM66 (PB): 0.6577

## H4K5ac: H4 1-23 [Peptide H4K5ac]
AIRE (PP)
  Array Heatmap signal, AIRE (PP): 0.3943
BAZ2B
  Array Heatmap signal, BAZ2B: 0.4414
BPTF (PB)
  Array Heatmap signal, BPTF (PB): 0.3451
CHD4 (PPCC)
  Array Heatmap signal, CHD4 (PPCC): 0.5634
CHD5 (PCC)
  Array Heatmap signal, CHD5 (PCC): 0.7301
CHD5 (PPCC)
  Array Heatmap signal, CHD5 (PPCC): 0.5269
DIDO1
  Array Heatmap signal, DIDO1: 0.6701
DPF2 (PPC2W2)
  Array Heatmap signal, DPF2 (PPC2W2): 0.6533
ING1
  Array Heatmap signal, ING1: 0.5387
ING2
  Array Heatmap signal, ING2: 0.5879
ING3
  Array Heatmap signal, ING3: 0.4744
ING4
  Array Heatmap signal, ING4: 0.4388
ING5
  Array Heatmap signal, ING5: 0.3447
KDM4C (TTP)
  Array Heatmap signal, KDM4C (TTP): 0.4448
KDM5A (1)
  Array Heatmap signal, KDM5A (1): 0.4372
KDM5A (3)
  Array Heatmap signal, KDM5A (3): 0.423
KDM5B (1)
  Array Heatmap signal, KDM5B (1): 0.6329
KDM5B (3)
  Array Heatmap signal, KDM5B (3): 0.4665
KDM7A
  Array Heatmap signal, KDM7A: 0.3174
MLL5
  Array Heatmap signal, MLL5: 0.5676
MORC3 (CW)
  Array Heatmap signal, MORC3 (CW): 0.3392
PHF13
  Array Heatmap signal, PHF13: 0.6012
PHF21A
  Array Heatmap signal, PHF21A: 0.436
PHF23
  Array Heatmap signal, PHF23: 0.5421
PHF2
  Array Heatmap signal, PHF2: 0.5353
PHF8
  Array Heatmap signal, PHF8: 0.3344
PHRF1 (RP)
  Array Heatmap signal, PHRF1 (RP): 0.4272
RAG2
  Array Heatmap signal, RAG2: 0.2578
SP140L
  Array Heatmap signal, SP140L: 0.3459
TAF3
  Array Heatmap signal, TAF3: 0.3079
TRIM66 (PB)
  Array Heatmap signal, TRIM66 (PB): 0.6888

## H4K5butK8butK12but: H4 1-23
AIRE (PP); AIRE (PP), sheet "Array Heatmap", each array performed twice, total n = 4
  Array Heatmap value (peptide array signal): 0.3828
BAZ2B; BAZ2B, sheet "Array Heatmap", each array performed twice, total n = 4
  Array Heatmap value (peptide array signal): 0.414
BPTF (PB); BPTF (PB), sheet "Array Heatmap", each array performed twice, total n = 4
  Array Heatmap value (peptide array signal): 0.3272
CHD4 (PPCC); CHD4 (PPCC), sheet "Array Heatmap", each array performed twice, total n = 4
  Array Heatmap value (peptide array signal): 0.5302
CHD5 (PCC); CHD5 (PCC), sheet "Array Heatmap", each array performed twice, total n = 4
  Array Heatmap value (peptide array signal): 0.661
CHD5 (PPCC); CHD5 (PPCC), sheet "Array Heatmap", each array performed twice, total n = 4
  Array Heatmap value (peptide array signal): 0.5134
DIDO1; DIDO1, sheet "Array Heatmap", each array performed twice, total n = 4
  Array Heatmap value (peptide array signal): 0.6712
DPF2 (PPC2W2); DPF2 (PPC2W2), sheet "Array Heatmap", each array performed twice, total n = 4
  Array Heatmap value (peptide array signal): 0.6505
ING1; ING1, sheet "Array Heatmap", each array performed twice, total n = 4
  Array Heatmap value (peptide array signal): 0.5532
ING2; ING2, sheet "Array Heatmap", each array performed twice, total n = 4
  Array Heatmap value (peptide array signal): 0.5892
ING3; ING3, sheet "Array Heatmap", each array performed twice, total n = 4
  Array Heatmap value (peptide array signal): 0.4441
ING4; ING4, sheet "Array Heatmap", each array performed twice, total n = 4
  Array Heatmap value (peptide array signal): 0.4352
ING5; ING5, sheet "Array Heatmap", each array performed twice, total n = 4
  Array Heatmap value (peptide array signal): 0.3275
KDM4C (TTP); KDM4C (TTP), sheet "Array Heatmap", each array performed twice, total n = 4
  Array Heatmap value (peptide array signal): 0.4273
KDM5A (1); KDM5A (1), sheet "Array Heatmap", each array performed twice, total n = 4
  Array Heatmap value (peptide array signal): 0.419
KDM5A (3); KDM5A (3), sheet "Array Heatmap", each array performed twice, total n = 4
  Array Heatmap value (peptide array signal): 0.4238
KDM5B (1); KDM5B (1), sheet "Array Heatmap", each array performed twice, total n = 4
  Array Heatmap value (peptide array signal): 0.5776
KDM5B (3); KDM5B (3), sheet "Array Heatmap", each array performed twice, total n = 4
  Array Heatmap value (peptide array signal): 0.4196
KDM7A; KDM7A, sheet "Array Heatmap", each array performed twice, total n = 4
  Array Heatmap value (peptide array signal): 0.3032
MLL5; MLL5, sheet "Array Heatmap", each array performed twice, total n = 4
  Array Heatmap value (peptide array signal): 0.5293
MORC3 (CW); MORC3 (CW), sheet "Array Heatmap", each array performed twice, total n = 4
  Array Heatmap value (peptide array signal): 0.3355
PHF13; PHF13, sheet "Array Heatmap", each array performed twice, total n = 4
  Array Heatmap value (peptide array signal): 0.5714
PHF21A; PHF21A, sheet "Array Heatmap", each array performed twice, total n = 4
  Array Heatmap value (peptide array signal): 0.3738
PHF23; PHF23, sheet "Array Heatmap", each array performed twice, total n = 4
  Array Heatmap value (peptide array signal): 0.5206
PHF2; PHF2, sheet "Array Heatmap", each array performed twice, total n = 4
  Array Heatmap value (peptide array signal): 0.5429
PHF8; PHF8, sheet "Array Heatmap", each array performed twice, total n = 4
  Array Heatmap value (peptide array signal): 0.3282
PHRF1 (RP); PHRF1 (RP), sheet "Array Heatmap", each array performed twice, total n = 4
  Array Heatmap value (peptide array signal): 0.4335
RAG2; RAG2, sheet "Array Heatmap", each array performed twice, total n = 4
  Array Heatmap value (peptide array signal): 0.2246
SP140L; SP140L, sheet "Array Heatmap", each array performed twice, total n = 4
  Array Heatmap value (peptide array signal): 0.3551
TAF3; TAF3, sheet "Array Heatmap", each array performed twice, total n = 4
  Array Heatmap value (peptide array signal): 0.2569
TRIM66 (PB); TRIM66 (PB), sheet "Array Heatmap", each array performed twice, total n = 4
  Array Heatmap value (peptide array signal): 0.5547
